# In the NIST ThermoML archive (doi:10.1016/j.jct.2004.05.006):
# ± gives the expanded uncertainty stated by the source.
# Columns and labels:
# [1] = 298.15 K; 101.33 kPa; Liquid
# [2] = excess molar enthalpy (molar enthalpy of mixing); xn = mol fraction of the nth substance listed; details: 298.15 K, 101.3 kPa, Liquid, Flow calorimetry
smiles,measurement,setting,value
COC(C)(C)C [2-methoxy-2-methylpropane],mass density,[1],735.69 ± 0.73 kg/m3
CCCC(C)C [2-methylpentane],mass density,[1],649.78 ± 0.94 kg/m3
CCCC(C)C [2-methylpentane] + COC(C)(C)C,excess molar enthalpy,[2]; x2 = 0.0532,0.0375 ± 0.0014 kJ/mol
same,excess molar enthalpy,[2]; x2 = 0.1063,0.0893 ± 0.0019 kJ/mol
same,excess molar enthalpy,[2]; x2 = 0.1589,0.14 ± 0.0024 kJ/mol
same,excess molar enthalpy,[2]; x2 = 0.2113,0.183 ± 0.0028 kJ/mol
same,excess molar enthalpy,[2]; x2 = 0.2633,0.219 ± 0.0032 kJ/mol
same,excess molar enthalpy,[2]; x2 = 0.315,0.25 ± 0.0035 kJ/mol
same,excess molar enthalpy,[2]; x2 = 0.3658,0.272 ± 0.0037 kJ/mol
same,excess molar enthalpy,[2]; x2 = 0.4165,0.289 ± 0.0039 kJ/mol
same,excess molar enthalpy,[2]; x2 = 0.4667,0.3 ± 0.004 kJ/mol
same,excess molar enthalpy,[2]; x2 = 0.5174,0.303 ± 0.004 kJ/mol
same,excess molar enthalpy,[2]; x2 = 0.5673,0.297 ± 0.004 kJ/mol
same,excess molar enthalpy,[2]; x2 = 0.6165,0.291 ± 0.0039 kJ/mol
same,excess molar enthalpy,[2]; x2 = 0.6652,0.276 ± 0.0038 kJ/mol
same,excess molar enthalpy,[2]; x2 = 0.7143,0.254 ± 0.0035 kJ/mol
same,excess molar enthalpy,[2]; x2 = 0.7628,0.227 ± 0.0033 kJ/mol
same,excess molar enthalpy,[2]; x2 = 0.81,0.193 ± 0.0029 kJ/mol
same,excess molar enthalpy,[2]; x2 = 0.8548,0.158 ± 0.0026 kJ/mol
same,excess molar enthalpy,[2]; x2 = 0.906,0.107 ± 0.0021 kJ/mol
same,excess molar enthalpy,[2]; x2 = 0.9531,0.0571 ± 0.0016 kJ/mol
CCCCCCCCCC [decane],mass density,[1],726.31 ± 0.81 kg/m3
CCCCCCCCCCCC [dodecane],mass density,[1],745.38 ± 0.78 kg/m3
